Laboratory results reported in PubChem BioAssay (NCI).
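How tested: cells in 96-well plates exposed to compound for 48 hours at five concentrations. GI50: concentration for 50% inhibition of growth. Definition used: TGI = concentration required for complete inhibition of growth.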 Where a SMILES comes first, the peptide text is derived from it. [ ]: non-standard residue; d: D form. The star is where a group is joined. Nle = CCCC[C@H](N)C(=O)O; Cbz = O=C(OCc1ccccc1)*

Experiments:
Experiment in all cases: NCI tumour cell line growth inhibition, 48 h
[1] = tested on: 786-0 renal
[2] = tested on: A498 renal
[3] = tested on: A549 NSCLC
[4] = tested on: ACHN renal
[5] = tested on: BT-549 breast
[6] = tested on: CAKI-1 renal
[7] = tested on: CCRF-CEM leukemia
[8] = tested on: COLO 205 colon
[9] = tested on: DU-145 prostate
[10] = tested on: EKVX NSCLC
[11] = tested on: HCC-2998 colon
[12] = tested on: HCT-116 colon
[13] = tested on: HCT-15 colon
[14] = tested on: HL-60(TB) leukemia
[15] = tested on: HOP-62 NSCLC
[16] = tested on: HOP-92 NSCLC
[17] = tested on: HS 578T breast
[18] = tested on: HT29 colon
[19] = tested on: IGROV1 ovarian
[20] = tested on: K-562 leukemia
[21] = tested on: KM12 colon
[22] = tested on: LOX IMVI melanoma
[23] = tested on: M14 melanoma
[24] = tested on: MALME-3M melanoma
[25] = tested on: MCF7 breast
[26] = tested on: MDA-MB-231 breast
[27] = tested on: MDA-MB-435
[28] = tested on: MOLT-4 leukemia
[29] = tested on: NCI-H226 lung
[30] = tested on: NCI-H23 lung
[31] = tested on: NCI-H460 lung
[32] = tested on: NCI-H522 lung
[33] = tested on: NCI/ADR-RES ovarian
[34] = tested on: OVCAR-3 ovarian
[35] = tested on: OVCAR-4 ovarian
[36] = tested on: OVCAR-5 ovarian
[37] = tested on: OVCAR-8 ovarian
[38] = tested on: PC-3 prostate
[39] = tested on: RPMI-8226 leukemia
[40] = tested on: RXF 393 renal
[41] = tested on: SF-268 CNS
[42] = tested on: SF-295 CNS
[43] = tested on: SF-539 CNS
[44] = tested on: SK-MEL-2 melanoma
[45] = tested on: SK-MEL-28 melanoma
[46] = tested on: SK-MEL-5 melanoma
[47] = tested on: SK-OV-3 ovarian
[48] = tested on: SNB-19 CNS
[49] = tested on: SR leukemia
[50] = tested on: SW-620 colon
[51] = tested on: T-47D breast
[52] = tested on: TK-10 renal
[53] = tested on: U251 CNS
[54] = tested on: UACC-257 melanoma
[55] = tested on: UACC-62 melanoma
[56] = tested on: UO-31 renal
[57] = tested on: SN12C renal

`CCCC[C@@H](C=O)NC(=O)[C@H](CC(C)C)NC(=O)[C@H](CC(C)C)NC(=O)OCc1ccccc1` (Cbz-Leu-Leu-[Nle]-aldehyde) gave a GI50 [1] of 243 nM, a TGI [1] of 1410 nM and a GI50 [2] of 305 nM. For the same compound, the TGI [2] was 964 nM, the GI50 [3] was 663 nM and the TGI [3] was 12200 nM. For the same compound, the GI50 [4] was 366 nM, the TGI [4] was 2430 nM and the GI50 [5] was 409 nM. The TGI [5] was 2590 nM, the GI50 [6] was 441 nM and the TGI [6] was 2150 nM. It also gave a GI50 [7] of 440 nM, a TGI [7] greater than 100000 nM and a GI50 [8] of 979 nM. It also gave a TGI [8] of 6200 nM, a GI50 [9] of 617 nM and a TGI [9] of 2460 nM. The GI50 [10] was 1060 nM, the TGI [10] was greater than 59000 nM and the GI50 [11] was 593 nM. The TGI [11] was 1960 nM, the GI50 [12] was 173 nM and the TGI [12] was 349 nM. It also gave a GI50 [13] of 1270 nM, a TGI [13] of 4940 nM and a GI50 [14] of 1010 nM. For the same compound, the TGI [14] was greater than 100000 nM, the GI50 [15] was 415 nM and the TGI [15] was 1550 nM. For the same compound, the GI50 [16] was 2090 nM, the TGI [16] was 6220 nM and the GI50 [17] was 308 nM. The TGI [17] was 4180 nM, the GI50 [18] was 349 nM and the TGI [18] was greater than 34000 nM. The GI50 [19] was 308 nM, the TGI [19] was 4390 nM and the GI50 [20] was 988 nM. It also gave a TGI [20] greater than 100000 nM, a GI50 [21] of 504 nM and a GI50 [22] of 226 nM. The TGI [22] was 537 nM, the GI50 [23] was 244 nM and the TGI [23] was 603 nM. The GI50 [24] was 570 nM, the TGI [24] was 4870 nM and the GI50 [25] was 546 nM. It also gave a TGI [25] of 20700 nM, a GI50 [26] of 444 nM and a TGI [26] of 1910 nM. It also gave a GI50 [27] of 212 nM, a TGI [27] of 469 nM and a GI50 [28] of 517 nM. For the same compound, the TGI [28] was greater than 100000 nM, the GI50 [29] was 175 nM and the TGI [29] was 343 nM. For the same compound, the GI50 [30] was 380 nM, the TGI [30] was 1770 nM and the GI50 [31] was 1570 nM. It also gave a TGI [31] of 6280 nM, a GI50 [32] of 662 nM and a TGI [32] of 5820 nM. It also gave a GI50 [33] of 3960 nM, a TGI [33] greater than 32600 nM and a GI50 [34] of 361 nM. For the same compound, the TGI [34] was 4660 nM, the GI50 [35] was 1070 nM and the TGI [35] was greater than 81000 nM. It also gave a GI50 [36] of 930 nM, a TGI [36] of 2840 nM and a GI50 [37] of 1410 nM. It also gave a TGI [37] greater than 37500 nM, a GI50 [38] of 2370 nM and a TGI [38] greater than 21100 nM. It also gave a GI50 [39] of 359 nM, a GI50 [40] of 144 nM and a TGI [40] of 316 nM. It also gave a GI50 [41] of 406 nM, a TGI [41] of 4170 nM and a GI50 [42] of 486 nM. It also gave a TGI [42] of 5710 nM, a GI50 [43] of 268 nM and a TGI [43] of 2530 nM. For the same compound, the GI50 [44] was 791 nM, the TGI [44] was 2840 nM and the GI50 [45] was 430 nM. For the same compound, the TGI [45] was 1610 nM, the GI50 [46] was 432 nM and the TGI [46] was 1880 nM. The GI50 [47] was 1310 nM, the TGI [47] was greater than 71500 nM and the GI50 [48] was 5370 nM. It also gave a TGI [48] greater than 21200 nM, a GI50 [49] of 279 nM and a TGI [49] of 1360 nM. The GI50 [50] was 298 nM, the TGI [50] was 2500 nM and the GI50 [51] was 688 nM. It also gave a GI50 [52] of 332 nM, a GI50 [53] of 570 nM and a TGI [53] of 2120 nM. It also gave a GI50 [54] of 395 nM, a TGI [54] of 1960 nM and a GI50 [55] of 403 nM. For the same compound, the TGI [55] was 1510 nM, the GI50 [56] was 398 nM and the TGI [56] was 1670 nM.
Compound `C/C(Cc1ccc(Cl)cc1)=C(\c1ccc(OCCN2CCCCCC2)cc1)c1ccc(OC(=O)c2ccccc2)cc1` has a GI50 [1] of 2990 nM, a TGI [1] of 9440 nM and a GI50 [2] of 5370 nM. It also gave a TGI [2] of 11400 nM, a GI50 [3] of 4270 nM and a TGI [3] of 12600 nM. It also gave a GI50 [4] of 5770 nM, a TGI [4] of 12800 nM and a GI50 [5] of 6270 nM. The TGI [5] was 12700 nM, the GI50 [6] was 3080 nM and the TGI [6] was 10600 nM. It also gave a GI50 [7] of 1120 nM, a TGI [7] of 3790 nM and a GI50 [8] of 1710 nM. It also gave a TGI [8] of 7340 nM, a GI50 [9] of 4260 nM and a TGI [9] of 11100 nM. The GI50 [10] was 4320 nM, the TGI [10] was 16600 nM and the GI50 [11] was 1380 nM. The TGI [11] was 3530 nM, the GI50 [12] was 1340 nM and the TGI [12] was 4540 nM. For the same compound, the GI50 [13] was 1730 nM, the TGI [13] was 7530 nM and the GI50 [14] was 1620 nM. The TGI [14] was 9030 nM, the GI50 [15] was 5980 nM and the TGI [15] was 12300 nM. For the same compound, the GI50 [16] was 1100 nM, the TGI [16] was 4430 nM and the GI50 [17] was 4290 nM. For the same compound, the TGI [17] was 14400 nM, the GI50 [18] was 1640 nM and the TGI [18] was 5750 nM. For the same compound, the GI50 [19] was 2720 nM, the TGI [19] was 10300 nM and the GI50 [20] was 1550 nM. The TGI [20] was 5880 nM, the GI50 [21] was 2360 nM and the TGI [21] was 9230 nM. It also gave a GI50 [22] of 1250 nM, a TGI [22] of 3220 nM and a GI50 [23] of 1010 nM. It also gave a TGI [23] of 2360 nM, a GI50 [24] of 1760 nM and a TGI [24] of 6560 nM. It also gave a GI50 [25] of 358 nM, a TGI [25] of 6920 nM and a GI50 [26] of 2150 nM. The TGI [26] was 8220 nM, the GI50 [27] was 2650 nM and the TGI [27] was 9270 nM. It also gave a GI50 [28] of 1290 nM, a TGI [28] of 5950 nM and a GI50 [29] of 8450 nM. For the same compound, the TGI [29] was 17500 nM, the GI50 [30] was 4690 nM and the TGI [30] was 12600 nM. For the same compound, the GI50 [31] was 1610 nM, the TGI [31] was 5230 nM and the GI50 [32] was 5780 nM. It also gave a TGI [32] of 12900 nM, a GI50 [33] of 3240 nM and a TGI [33] of 11300 nM. For the same compound, the GI50 [34] was 3780 nM, the TGI [34] was 10200 nM and the GI50 [35] was 1880 nM. It also gave a TGI [35] of 8510 nM, a GI50 [36] of 4640 nM and a TGI [36] of 11700 nM. It also gave a GI50 [37] of 2850 nM, a TGI [37] of 9350 nM and a GI50 [38] of 1700 nM. For the same compound, the TGI [38] was 7290 nM, the GI50 [39] was 1160 nM and the TGI [39] was 3280 nM. For the same compound, the GI50 [40] was 2490 nM, the TGI [40] was 9150 nM and the GI50 [41] was 3030 nM. The TGI [41] was 10700 nM, the GI50 [42] was 2270 nM and the TGI [42] was 8480 nM. It also gave a GI50 [43] of 5180 nM, a TGI [43] of 11400 nM and a GI50 [44] of 6920 nM. The TGI [44] was 14000 nM, the GI50 [45] was 1150 nM and the TGI [45] was 2940 nM. It also gave a GI50 [46] of 2300 nM, a TGI [46] of 8480 nM and a GI50 [47] of 5800 nM. It also gave a TGI [47] of 13200 nM, a GI50 [57] of 3190 nM and a TGI [57] of 10300 nM. The GI50 [48] was 5290 nM, the TGI [48] was 14600 nM and the GI50 [49] was 1250 nM. For the same compound, the TGI [49] was 3800 nM, the GI50 [50] was 2520 nM and the TGI [50] was 9700 nM. For the same compound, the GI50 [51] was 1430 nM, the TGI [51] was 9730 nM and the GI50 [52] was 6030 nM. The TGI [52] was 13300 nM, the GI50 [53] was 2610 nM and the TGI [53] was 8960 nM. The GI50 [54] was 6180 nM, the TGI [54] was 13000 nM and the GI50 [55] was 1300 nM. It also gave a TGI [55] of 3900 nM, a GI50 [56] of 1390 nM and a TGI [56] of 7300 nM.
